Reference: patent publication US10899754B2, “Modulators of indoleamine 2,3-dioxygenase” (GLAXOSMITHKLINE INTELLECTUAL PROPERTY DEVELOPMENT LIMITED, priority 2016, dated 2021)

Key:
Assay type in all cases: cell-based
[1] = biological target: T1, indoleamine 2, 3-dioxygenase (IDO1) (Homo sapiens, UniProt P14902); assay: IDO1 PBMC RapidFire MS assay (kynurenine detection by mass spectrometry); set-up: to induce the expression of indoleamine 2, 3-dioxygenase (IDO1); host or cells: human PBMC stimulated with IFN-gamma and LPS; conditions: human PBMC stimulated with IFN-γ and LPS, 2 days, pIC50, read-out: PBMC PXC50 (converted)
T1 sequence (P14902 whole entry): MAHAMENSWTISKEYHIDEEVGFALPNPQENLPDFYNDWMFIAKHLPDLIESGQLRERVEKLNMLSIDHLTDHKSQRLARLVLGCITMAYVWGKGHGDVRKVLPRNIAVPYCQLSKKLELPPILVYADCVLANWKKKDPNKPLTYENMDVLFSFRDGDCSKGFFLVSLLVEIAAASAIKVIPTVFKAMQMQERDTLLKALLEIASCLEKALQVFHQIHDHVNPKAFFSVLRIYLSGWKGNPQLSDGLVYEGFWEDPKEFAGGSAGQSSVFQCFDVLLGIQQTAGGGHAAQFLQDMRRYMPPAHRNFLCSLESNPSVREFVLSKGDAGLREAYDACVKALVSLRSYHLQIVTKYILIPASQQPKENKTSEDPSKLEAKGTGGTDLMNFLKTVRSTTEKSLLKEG
How it was run: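 Kynurenine output, read by RapidFire mass spectrometry as ratio to an internal standard, was measured after 2-day compound exposure (11-point, 3-fold dilutions) of human PBMCs induced with 100 ng/ml IFN-γ and 50 ng/ml LPS. Cell viability tracked alongside via ATP luminescence; XC50 from curve fitting.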

[2] = biological target: T1, indoleamine 2, 3-dioxygenase (IDO1); assay: IDO1 HeLa RapidFire MS assay (kynurenine detection by mass spectrometry); set-up: to induce the expression of indoleamine 2, 3-dioxygenase (IDO1); conditions: HeLa cells, pIC50, read-out: IDO1_HELA_PXC50 (converted)
How it was run: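 Compound potency reported as pIC50 from kynurenine/internal-standard ratio (RapidFire MS) in supernatant of IFN-γ-induced (10 nM) HeLa cells, 5,000 per well, after 2 days' treatment with 11-point dilutions. Cytotoxicity in the same format by luminescent ATP detection, reported as pCC50.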

[3] = system: human peripheral blood mononuclear cells (PBMC); assay: PBMC cytotoxicity assay (CellTiter-Glo); conditions: 2 days, pCC50
How it was run: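 % cytotoxicity was taken from CellTiter-Glo luminescence, using wells without cells and stimulated DMSO wells as references, and fitted by four-parameter curve to give XC50. Cells were human PBMC at 50,000 per well, activated with 100 ng/ml IFN-γ plus 50 ng/ml LPS. Incubation with 11-point, 3-fold dilution series ran for 2 days at 37 °C.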

[4] = system: human epithelial HeLa cells; assay: HeLa cytotoxicity assay (CellTiter-Glo); conditions: pCC50
How it was run: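 Read-out is CellTiter-Glo luminescence after 2 days at 37 °C, on IFN-γ-stimulated (10 nM) HeLa cells seeded at 5,000/well with compounds in 11-point 3-fold dose series. pCC50 from four-parameter curve fit; wells without cells set 100% cytotoxicity, stimulated cells with DMSO set 0%.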

| SMILES | IC50 [1] [nM] | IC50 [2] [nM] | PBMC TOX PXC50 [3] | HELA_IDO1_TOX_PXC50 [4] |
| --- | --- | --- | --- | --- |
| CC(C)CN(c1ccc(C(C)CC(=O)O)cc1NC1=NC(=O)[C@H](C)N1)C1CCCCC1 (stereo partly drawn) [example 164, 3-{4-[cyclohexyl(2-methylpropyl)amino]-3-{[(5S)-5-methyl-4-oxo-4,5-dihydro-1H-imidazol-2-yl]amino}phenyl}butanoic acid] | 316 | 631 | <5 | <5 |
| CC(C)CN(c1ccc([C@H](C)CC(=O)O)cc1Nc1nc(C2CC2)cs1)C1CCOCC1 [example 211, (3R)-3-{3-[(4-cyclopropyl-1,3-thiazol-2-yl)amino]-4-[(2-methylpropyl)(oxan-4-yl)amino]phenyl}butanoic acid] | 20 | 25.1 | <5 | <5 |
| CC(C)CN(c1ccc(-c2cccnc2C(=O)O)cc1Nc1nc(C(F)(F)F)ns1)C1CCOCC1 [example 269, 3-{4-[(2-methylpropyl)(oxan-4-yl)amino]-3-{[3-(trifluoromethyl)-1,2,4-thiadiazol-5-yl]amino}phenyl}pyridine-2-carboxylic acid] | 31.6 | 316 | <5 | <5 |
| CC[C@@H](CC(=O)O)c1ccc(N(CC(C)C)C2CCCCC2)c(Nc2nc(Cl)ns2)c1 [example 166, (3S)-3-{3-[(3-chloro-1,2,4-thiadiazol-5-yl)amino]-4-[cyclohexyl(2-methylpropyl)amino]phenyl}pentanoic acid] | 0.316 | 10 | 5.1 | <5 |
| CC(C)CN(c1ccc(C(C)CC(=O)O)cc1NC1=N[C@@H](C(F)(F)F)CS1)C1CCCCC1 (stereo partly drawn) [example 154, 3-{4-[cyclohexyl(2-methylpropyl)amino]-3-{[(4S)-4-(trifluoromethyl)-4,5-dihydro-1,3-thiazol-2-yl]amino}phenyl}butanoic acid] | 20 | 31.6 | <5 | <5 |
| Cc1nc(C)c(Nc2cc(C(C)CC(=O)O)ccc2N(CC(C)C)CC(C)C)s1 (stereo not shown) [example 139, 3-{4-[bis(2-methylpropyl)amino]-3-[(2,4-dimethyl-1,3-thiazol-5-yl)amino]phenyl}butanoic acid] | > 10000 | > 10000 | <5 | <5 |
| CC(C)CN(c1ccc([C@@H](C)CC(=O)O)cc1Nc1ccnc(Cl)n1)C1CCCCC1 [example 300] | 2.51 | 3.98 | <5 | <5 |
| CC(C)CN(c1ccc(C(C)OCC(=O)O)cc1Nc1nc(Cl)ns1)C1CCCCC1 (stereo not shown) [example 171, 2-(1-{3-[(3-chloro-1,2,4-thiadiazol-5-yl)amino]-4-[cyclohexyl(2-methylpropyl)amino]phenyl}ethoxy)acetic acid] | 25.1 | 158 | <5 | <5 |
| CC(C)CN(c1ccc([C@H](C)CC(=O)O)cc1Nc1ccc(Cl)nc1)[C@H]1CC[C@H](O)CC1 [Example 49, (R)-3-(3-((6-chloropyridin-3-yl)amino)-4-(((1r,4R)-4-hydroxycyclohexyl) (isobutyl)amino)phenyl)butanoic Acid] | 2 | 6.31 | <5 | <5 |
| CC(C)CN(c1ccc([C@H](C)CC(=O)O)cc1Nc1ccc(Cl)nc1)[C@H]1CC[C@@H](O)CC1 [Example 58, (R)-3-(3-((6-chloropyridin-3-yl)amino)-4-(((1s,4S)-4-hydroxycyclohexyl) (isobutyl)amino)phenyl)butanoic Acid] | 7.94 | 10 | <5 | <5 |
| CC(C)CN(c1ccc(C(C)CC(=O)O)cc1NC1CCC(C)CC1)C1CCCCC1 (stereo not shown) [example 158, 3-{4-[cyclohexyl(2-methylpropyl)amino]-3-[(4-methylcyclohexyl)ami-no]phenyl}butanoic acid] | 631 | 1000 | <5 | <5 |
| CO[C@H]1CC[C@@H](N(CC(C)C)c2ccc([C@H](C)CC(=O)O)cc2Nc2n[nH]c(Cl)n2)CC1 [Example 61, (R)-3-(3-((5-chloro-1H-1,2,4-triazol-3-yl)amino)-4-(isobutyl((cis)-4-methoxycyclohexyl)amino)phenyl)butanoic Acid] | 2 | 6.31 | <5 | <5 |
| CC(C)CN(c1ccc(C(C)CC(=O)O)cc1NC1=N[C@@H](c2ccccc2)CO1)C1CCCCC1 (stereo partly drawn) [example 153, 3-{4-[cyclohexyl(2-methylpropyl)amino]-3-{[(4S)-4-phenyl-4,5-dihydro-1,3-oxazol-2-yl]amino}phenyl}butanoic acid] | 2000 | 3980 | <5 | <5 |
| CC(C)CN(CC(C)C)c1ccc(C2CC2C(=O)O)cc1Nc1nc(C(F)(F)F)ns1 (stereo not shown) [example 174, 2-{4-[bis(2-methylpropyl)amino]-3-{[3-(trifluoromethyl)-1,2,4-thiadiazol-5-yl]amino}phenyl}cyclo-propane-1-carboxylic acid] | 12.6 | 12.6 | <5 | <5 |
| CC[C@H](CC(=O)O)c1ccc(N(CC(C)C)CC(C)C)c(Nc2nc(Cl)ns2)c1 [Example 40, (R)-3-(3-((3-chloro-1,2,4-thiadiazol-5-yl)amino)-4-(diisobutylmino)phenyl)pentanoic Acid] | 2.51 | 12.6 | <5 | <5 |
| CC(C)CN(c1ccc([C@H](C)CC(=O)O)cc1Nc1ccc(Cl)nn1)[C@H]1CC[C@H](O)CC1 [Example 57, (R)-3-(3-((6-chloropyridazin-3-yl)amino)-4-(((1r,4R)-4-hydroxycyclohexyl) (isobutyl)amino)phenyl)butanoic Acid] | 5.01 | 7.94 | <5 | <5 |
| CC(C)CN(c1ccc([C@H](C)CC(=O)O)cc1Nc1cnc(C#N)nc1)C1CCOCC1 [Example 17, (R)-3-(3-((2-cyanopyrimidin-5-yl)amino)-4-(isobutyl(tetrahydro-2H-pyran-4-yl)amino)phenyl)butanoic Acid] | 2 | 6.31 | <5 | <5 |
| CC(C)CN(CC(C)C)c1ccc([C@H](C)CC(=O)NS(C)(=O)=O)cc1Nc1nc(C(F)(F)F)ns1 [Example 109, (R)-3-(4-(diisobutylamino)-3-((3-(trifluoromethyl)-1,2,4-thiadiazol-5-yl)amino)phenyl)-N-(methylsulfonyl)butanamide] | 10 | 31.6 | <5 | <5 |
| CC(C)CN(c1ccc(C(C)CC(=O)O)cc1NCc1ncccn1)C1CCCCC1 (stereo not shown) [example 160, 3-{4-[cyclohexyl(2-methylpropyl)amino]-3-{[(pyrimidin-2-yl)methyl]amino}phenyl} butanoic acid] | > 10000 | > 10000 | <5 | <5 |
